Values quoted from earlier work in patent US20210023023A1, “LIPOSOMAL NUTRACEUTICAL COMPOSITIONS AND METHODS OF MAKING THE SAME” (VASAYO, LLC, priority 2019, published 2021).

Details: in studies

## C=C(C)[C@@H]1CCC(C)=C[C@H]1c1c(O)cc(CCCCC)cc1O [CBD, cannabidiol]
  anti-inflammatory effects, potency relative to aspirin: several hundred times more potent than aspirin
